Experimental data: ChEMBL document CHEMBL1201862, “PubChem BioAssay data set” (2004)
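Growth conditions: 96-well plates. Treatment: test compound, 48 hours, 5 concentrations. Analysis: linear interpolation between bracketing concentrations; unreached endpoints set to highest concentration. At the GI50, growth is halved.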 The source made the active and inactive calls. Rule as the data show it: active = GI50 up to about 1.1 µM and inactive = higher.

Experiments:
Experiment in all cases: NCI tumour cell line growth inhibition, 48 h
MCF7 = test system: MCF7
HOP-62 = test system: HOP-62
SK-OV-3 = test system: SK-OV-3
NCI-H460 = test system: NCI-H460
PC-3 = test system: PC-3
SK-MEL-28 = test system: SK-MEL-28
MOLT-4 = test system: MOLT-4
EKVX = test system: EKVX
786-0 = test system: 786-0
COLO 205 = test system: COLO 205
OVCAR-8 = test system: OVCAR-8
SNB-75 = test system: SNB-75
TK-10 = test system: TK-10
M14 = test system: M14
IGROV-1 = test system: IGROV-1
HCT-116 = test system: HCT-116
SNB-19 = test system: SNB-19
SK-MEL-2 = test system: SK-MEL-2
ACHN = test system: ACHN
LOX IMVI = test system: LOX IMVI
RXF 393 = test system: RXF 393
NCI/ADR-RES = test system: NCI/ADR-RES
Hs-578T = test system: Hs-578T
A498 = test system: A498
SW-620 = test system: SW-620
BT-549 = test system: BT-549
T47D = test system: T47D
CAKI-1 = test system: CAKI-1
A549 = test system: A549
SK-MEL-5 = test system: SK-MEL-5
UACC-62 = test system: UACC-62
SF-268 = test system: SF-268
NCI-H226 = test system: NCI-H226
HOP-92 = test system: HOP-92
NCI-H23 = test system: NCI-H23
MDA-MB-231 = test system: MDA-MB-231
OVCAR-3 = test system: OVCAR-3
UACC-257 = test system: UACC-257
SR = test system: SR
SF-539 = test system: SF-539
MDA-MB-435 = test system: MDA-MB-435
HCT-15 = test system: HCT-15
NCI-H522 = test system: NCI-H522
OVCAR-4 = test system: OVCAR-4
SN12C = test system: SN12C
Malme-3M = test system: Malme-3M
SF-295 = test system: SF-295
HT-29 = test system: HT-29
CCRF-CEM = test system: CCRF-CEM
U-251 = test system: U-251
RPMI-8226 = test system: RPMI-8226
UO-31 = test system: UO-31
HL-60 = test system: HL-60
KM12 = test system: KM12
OVCAR-5 = test system: OVCAR-5
DU-145 = test system: DU-145
K562 = test system: K562

**Q.** How did the GI50 (MCF7) turn out when `CN(Cc1cc(Cl)cc(Cl)c1)CC(C(=O)c1ccccc1)c1ccccc1` (centres undefined) was run?
**A.** 3.73 µM (inactive)

**Q.** What about the GI50 (HOP-62) of the same compound?
**A.** 24.8 µM (inactive)

**Q.** What about the GI50 (SK-OV-3) of the same compound?
**A.** 10.6 µM (inactive)

**Q.** What about the GI50 (NCI-H460) of the same compound?
**A.** 27.5 µM (inactive)

**Q.** What about the GI50 (PC-3) of the same compound?
**A.** 4.91 µM (inactive)

**Q.** What about the GI50 (SK-MEL-28) of the same compound?
**A.** 2.9 µM (inactive)

**Q.** And the GI50 (MOLT-4)?
**A.** 0.684 µM (active)

**Q.** What about the GI50 (EKVX) of the same compound?
**A.** 16.7 µM (inactive)

**Q.** And the GI50 (786-0)?
**A.** 2.49 µM (inactive)

**Q.** And the GI50 (COLO 205)?
**A.** 3.92 µM (inactive)

**Q.** And the GI50 (OVCAR-8)?
**A.** 4.2 µM (inactive)

**Q.** What about the GI50 (SNB-75) of the same compound?
**A.** 7.48 µM (inactive)

**Q.** And the GI50 (TK-10)?
**A.** 6.37 µM (inactive)

**Q.** What about the GI50 (M14) of the same compound?
**A.** 2.98 µM (inactive)

**Q.** And the GI50 (IGROV-1)?
**A.** 26.7 µM (inactive)

**Q.** And the GI50 (HCT-116)?
**A.** 0.689 µM (active)

**Q.** And the GI50 (SNB-19)?
**A.** 14.4 µM (inactive)

**Q.** And the GI50 (SK-MEL-2)?
**A.** 10.2 µM (inactive)

**Q.** And the GI50 (ACHN)?
**A.** 0.445 µM (active)

**Q.** And the GI50 (LOX IMVI)?
**A.** 1.65 µM (inactive)

**Q.** What about the GI50 (RXF 393) of the same compound?
**A.** 4 µM (inactive)

**Q.** And the GI50 (NCI/ADR-RES)?
**A.** 1.57 µM (inactive)

**Q.** And the GI50 (Hs-578T)?
**A.** 3.15 µM (inactive)

**Q.** What about the GI50 (A498) of the same compound?
**A.** 14.5 µM (inactive)

**Q.** And the GI50 (SW-620)?
**A.** 0.326 µM (active)

**Q.** And the GI50 (BT-549)?
**A.** 3.06 µM (inactive)

**Q.** What about the GI50 (T47D) of the same compound?
**A.** 2.02 µM (inactive)

**Q.** And the GI50 (CAKI-1)?
**A.** 1.03 µM (active)

**Q.** What about the GI50 (A549) of the same compound?
**A.** 23.3 µM (inactive)

**Q.** What about the GI50 (SK-MEL-5) of the same compound?
**A.** 10.5 µM (inactive)

**Q.** And the GI50 (UACC-62)?
**A.** 2.9 µM (inactive)

**Q.** And the GI50 (SF-268)?
**A.** 13.7 µM (inactive)

**Q.** And the GI50 (NCI-H226)?
**A.** 5.5 µM (inactive)

**Q.** What about the GI50 (HOP-92) of the same compound?
**A.** 7.33 µM (inactive)

**Q.** What about the GI50 (NCI-H23) of the same compound?
**A.** 1.7 µM (inactive)

**Q.** What about the GI50 (MDA-MB-231) of the same compound?
**A.** 6.81 µM (inactive)

**Q.** And the GI50 (OVCAR-3)?
**A.** 0.605 µM (active)

**Q.** And the GI50 (UACC-257)?
**A.** 2.56 µM (inactive)

**Q.** What about the GI50 (SR) of the same compound?
**A.** 0.473 µM (active)

**Q.** What about the GI50 (SF-539) of the same compound?
**A.** 5.77 µM (inactive)

**Q.** What about the GI50 (MDA-MB-435) of the same compound?
**A.** 3.61 µM (inactive)

**Q.** And the GI50 (HCT-15)?
**A.** 0.368 µM

**Q.** And the GI50 (NCI-H522)?
**A.** 1.54 µM (inactive)

**Q.** And the GI50 (OVCAR-4)?
**A.** 2.07 µM (inactive)

**Q.** What about the GI50 (SN12C) of the same compound?
**A.** 4.67 µM (inactive)

**Q.** And the GI50 (Malme-3M)?
**A.** 8 µM (inactive)

**Q.** And the GI50 (SF-295)?
**A.** 27 µM (inactive)

**Q.** And the GI50 (HT-29)?
**A.** 1.12 µM (active)

**Q.** And the GI50 (CCRF-CEM)?
**A.** < 0.0439 µM (active)

**Q.** And the GI50 (U-251)?
**A.** 1.38 µM (inactive)

**Q.** What about the GI50 (RPMI-8226) of the same compound?
**A.** 0.1 µM (active)

**Q.** And the GI50 (UO-31)?
**A.** 6.46 µM (inactive)

**Q.** And the GI50 (HL-60)?
**A.** 1.65 µM (inactive)

**Q.** What about the GI50 (KM12) of the same compound?
**A.** 3.78 µM (inactive)

**Q.** What about the GI50 (OVCAR-5) of the same compound?
**A.** 6.21 µM (inactive)

**Q.** What about the GI50 (DU-145) of the same compound?
**A.** 4.69 µM (inactive)

**Q.** And the GI50 (K562)?
**A.** 0.962 µM (active)

**Q.** How did the GI50 (HOP-62) turn out when `O=C(Nc1ccccc1)c1cc2ccccc2c(/N=N/c2ccc([N+](=O)[O-])cc2)c1O` was run?
**A.** 30.6 µM (inactive)

**Q.** And the GI50 (SK-OV-3)?
**A.** 81.8 µM (inactive)

**Q.** And the GI50 (PC-3)?
**A.** > 100 µM (inactive)

**Q.** What about the GI50 (SK-MEL-28) of the same compound?
**A.** > 100 µM (inactive)

**Q.** And the GI50 (MOLT-4)?
**A.** 17 µM (inactive)

**Q.** And the GI50 (EKVX)?
**A.** > 100 µM (inactive)

**Q.** And the GI50 (786-0)?
**A.** 86.3 µM (inactive)

**Q.** What about the GI50 (COLO 205) of the same compound?
**A.** > 100 µM (inactive)

**Q.** What about the GI50 (OVCAR-8) of the same compound?
**A.** > 100 µM (inactive)

**Q.** What about the GI50 (SNB-75) of the same compound?
**A.** 73.5 µM (inactive)

**Q.** What about the GI50 (TK-10) of the same compound?
**A.** 56.1 µM (inactive)

**Q.** And the GI50 (M14)?
**A.** > 100 µM (inactive)

**Q.** What about the GI50 (IGROV-1) of the same compound?
**A.** > 100 µM (inactive)

**Q.** And the GI50 (HCT-116)?
**A.** > 100 µM (inactive)

**Q.** And the GI50 (SNB-19)?
**A.** 59.6 µM (inactive)

**Q.** What about the GI50 (SK-MEL-2) of the same compound?
**A.** 32.8 µM (inactive)

**Q.** What about the GI50 (ACHN) of the same compound?
**A.** > 100 µM (inactive)

**Q.** What about the GI50 (LOX IMVI) of the same compound?
**A.** > 100 µM (inactive)

**Q.** What about the GI50 (RXF 393) of the same compound?
**A.** 82.4 µM (inactive)

**Q.** What about the GI50 (NCI/ADR-RES) of the same compound?
**A.** > 100 µM (inactive)

**Q.** What about the GI50 (Hs-578T) of the same compound?
**A.** 55.1 µM (inactive)

**Q.** What about the GI50 (SW-620) of the same compound?
**A.** > 100 µM (inactive)

**Q.** What about the GI50 (BT-549) of the same compound?
**A.** 44.3 µM (inactive)

**Q.** What about the GI50 (T47D) of the same compound?
**A.** > 100 µM (inactive)

**Q.** And the GI50 (CAKI-1)?
**A.** > 100 µM (inactive)

**Q.** And the GI50 (A549)?
**A.** > 100 µM (inactive)

**Q.** What about the GI50 (SK-MEL-5) of the same compound?
**A.** > 100 µM (inactive)

**Q.** And the GI50 (UACC-62)?
**A.** 65.2 µM (inactive)

**Q.** And the GI50 (SF-268)?
**A.** > 100 µM (inactive)

**Q.** What about the GI50 (NCI-H226) of the same compound?
**A.** > 100 µM (inactive)

**Q.** What about the GI50 (HOP-92) of the same compound?
**A.** 99.3 µM (inactive)

**Q.** And the GI50 (NCI-H23)?
**A.** 33.2 µM (inactive)

**Q.** And the GI50 (MDA-MB-231)?
**A.** 71.9 µM (inactive)

**Q.** What about the GI50 (OVCAR-3) of the same compound?
**A.** 70.1 µM (inactive)

**Q.** What about the GI50 (UACC-257) of the same compound?
**A.** > 100 µM (inactive)

**Q.** And the GI50 (MDA-MB-435)?
**A.** > 100 µM (inactive)

**Q.** What about the GI50 (HCT-15) of the same compound?
**A.** > 100 µM

**Q.** What about the GI50 (NCI-H522) of the same compound?
**A.** > 100 µM (inactive)

**Q.** And the GI50 (OVCAR-4)?
**A.** > 100 µM (inactive)

**Q.** And the GI50 (SN12C)?
**A.** > 100 µM (inactive)

**Q.** And the GI50 (Malme-3M)?
**A.** > 100 µM (inactive)

**Q.** And the GI50 (SF-295)?
**A.** 38.7 µM (inactive)

**Q.** And the GI50 (HT-29)?
**A.** > 100 µM (inactive)

**Q.** What about the GI50 (CCRF-CEM) of the same compound?
**A.** 4.85 µM (inactive)

**Q.** What about the GI50 (U-251) of the same compound?
**A.** 31.4 µM (inactive)

**Q.** What about the GI50 (RPMI-8226) of the same compound?
**A.** 25.5 µM (inactive)

**Q.** What about the GI50 (UO-31) of the same compound?
**A.** > 100 µM (inactive)

**Q.** And the GI50 (HL-60)?
**A.** 1.14 µM (inactive)

**Q.** And the GI50 (KM12)?
**A.** > 100 µM (inactive)

**Q.** And the GI50 (OVCAR-5)?
**A.** > 100 µM (inactive)

**Q.** And the GI50 (DU-145)?
**A.** > 100 µM (inactive)

**Q.** And the GI50 (K562)?
**A.** 35.6 µM (inactive)
